Results on one molecule are retold here after PMC5471928 (2017).

For assay [1], the system named is ssDNA (DNA, single strand) GGATGTGAGTGTGAGTGTGAGG
Description: UV-vis absorption titration. The note with it: K+ 100 mM; 10 mM Tris-HCl pH 7.4; 5 µM c-exNDI; apparent.

Assay [2] relates to dsDNA (DNA, duplex) CAATCGGATCGAATTCGATCCGATTG
Description: UV-vis absorption titration. The note with it: K+ 100 mM; 10 mM Tris-HCl pH 7.4; 5 µM c-exNDI; apparent.

For assay [3], the system named is c-myc (DNA, G4) TGAGGGTGGGTAGGGTGGGTAA
Description: UV-vis absorption titration. The note with it: K+ 100 mM; 10 mM Tris-HCl pH 7.4; 5 µM c-exNDI; apparent; main text prints error ± 0.3.

The test system of assay [4] is hTel22 (DNA, G4) AGGGTTAGGGTTAGGGTTAGGG
The experiment in a line: fluorescence titration. The note with it: K+ 100 mM; 10 mM Tris-HCl pH 7.4; 5 µM c-exNDI; apparent.

Assay [5] concerns c-kit2 (DNA, G4) CCCGGGCGGGCGCGAGGGAGGGGAGG
Description: fluorescence light-up. To be noted: K+ 100 mM; 10 mM Tris-HCl pH 7.4; 5 µM each; quantum yield 0.13 against 0.08 free.

The test system of assay [6] is TBA (DNA, G4) GGTTGGTGTGGTTGG
The experiment in a line: UV-vis absorption titration. To be noted: K+ 100 mM; 10 mM Tris-HCl pH 7.4; 5 µM c-exNDI; apparent.

In assay [7] the test system is c-kit1 (DNA, G4) AGGGAGGGCGCTGGGAGGAGGG
Description: UV-vis absorption titration. The note with it: K+ 100 mM; 10 mM Tris-HCl pH 7.4; 5 µM c-exNDI; apparent.

The test system of assay [8] is HRAS (DNA, G4) TCGGGTTGCGGGCGCAGGGCACGGGCG
The experiment in a line: UV-vis absorption titration. To be noted: K+ 100 mM; 10 mM Tris-HCl pH 7.4; 5 µM c-exNDI; apparent; overall constant of 2:1 model.

The subject of assay [9] is hTel22 (DNA, G4) AGGGTTAGGGTTAGGGTTAGGG
Description: circular dichroism (induced CD). To be noted: K+ 100 mM; 4 µM G4, 16 µM c-exNDI.

Assay [10] shares this test system. The experiment in a line: UV-vis absorption titration. To be noted: 10 mM Tris-HCl pH 7.4, 5 µM c-exNDI, apparent.

For the molecule `CN(C)CCCn1c(=O)c2ccc3c(=O)n(CCCN(C)C)c(=O)c4c5[nH]c6ccccc6[nH]c5c(c1=O)c2c34`, the “K1:1” value in [1] was 2.85±0.01x10^5 M^-1; in assay [2], 7.41±0.03x10^3 M^-1; in assay [3] it was 3.43±0.03x10^7 M^-1; in assay [4] it was 5.34±0.03x10^6 M^-1; in assay [6] it was 1.2±0.5x10^5 M^-1; in assay [7], 4.82±0.04x10^6 M^-1. Besides, the “K1:1” value in assay [10] (K+ 100 mM) is listed as 5.37±0.06x10^6 M^-1. For the same molecule, the binding result in [5] and in [9] was “yes” each time. In addition, the “K1:2” value was 3.0±0.3x10^10 M^-2 in [8] and 3.0±0.3x10^11 M^-2 in assay [10] (Na+ 100 mM, overall constant of 2:1 model).
